Results taken from patent publication US10774086B2, “GSK-3 inhibitors” (BRISTOL-MYERS SQUIBB COMPANY, priority 2016, dated 2020).

Assays:
pTau = pTau assay; assay type: cell-based
GSK3β = GSK3β (Homo sapiens (Human), UniProt P49841); assay: GSK3β kinase assay (Caliper LabChip, fluoresceinated peptide substrate); assay type: biochemical; conditions: 250 pM enzyme, 20 uM ATP, 1.5 uM peptide, 20 hours room temperature; read-out: GSK3β IC50 (first value of GSK3β/GSK3α)
Protocol: The kinase assay was performed in V-bottom 384-well plates. […] The reaction was incubated at room temperature for 20 hours and terminated by adding 45 μl of 35 mM EDTA to each sample. The reaction mixture was analyzed on the Caliper LabChip3000 (Caliper, Hopkinton, Mass.) by electrophoretic separation of the unphosphorylated substrate and phosphorylated product. […] Compounds were dissolved at 10 mM in dimethylsulfoxide (DMSO) and evaluated at eleven concentrations. IC50 values were derived by non-linear regression analysis.

GSK3α = GSK3α (Homo sapiens (Human), UniProt P49840); assay: GSK3α kinase assay (Caliper LabChip, fluoresceinated peptide substrate); assay type: biochemical; conditions: 250 pM enzyme, 20 uM ATP, 1.5 uM peptide, 20 hours room temperature; read-out: GSK3α IC50 (second value of GSK3β/GSK3α)
GSK3α, sequence (P49840 whole entry, species assumed): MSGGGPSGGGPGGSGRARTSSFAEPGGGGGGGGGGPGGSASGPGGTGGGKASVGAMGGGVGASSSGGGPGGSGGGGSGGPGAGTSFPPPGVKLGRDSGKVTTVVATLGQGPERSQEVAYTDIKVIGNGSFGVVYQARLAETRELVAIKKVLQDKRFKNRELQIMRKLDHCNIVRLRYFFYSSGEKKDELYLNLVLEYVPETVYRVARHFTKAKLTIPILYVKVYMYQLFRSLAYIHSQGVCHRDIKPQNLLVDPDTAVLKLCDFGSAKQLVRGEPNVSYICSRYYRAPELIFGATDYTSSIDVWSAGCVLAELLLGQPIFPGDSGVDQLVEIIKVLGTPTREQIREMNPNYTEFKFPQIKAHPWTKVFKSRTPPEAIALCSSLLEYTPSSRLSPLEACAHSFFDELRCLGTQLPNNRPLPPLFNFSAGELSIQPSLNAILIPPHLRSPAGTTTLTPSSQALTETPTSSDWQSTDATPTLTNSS
From the text: IC50 values were derived by non-linear regression analysis.

GSK3β, sequence (P49841 whole entry, species assumed): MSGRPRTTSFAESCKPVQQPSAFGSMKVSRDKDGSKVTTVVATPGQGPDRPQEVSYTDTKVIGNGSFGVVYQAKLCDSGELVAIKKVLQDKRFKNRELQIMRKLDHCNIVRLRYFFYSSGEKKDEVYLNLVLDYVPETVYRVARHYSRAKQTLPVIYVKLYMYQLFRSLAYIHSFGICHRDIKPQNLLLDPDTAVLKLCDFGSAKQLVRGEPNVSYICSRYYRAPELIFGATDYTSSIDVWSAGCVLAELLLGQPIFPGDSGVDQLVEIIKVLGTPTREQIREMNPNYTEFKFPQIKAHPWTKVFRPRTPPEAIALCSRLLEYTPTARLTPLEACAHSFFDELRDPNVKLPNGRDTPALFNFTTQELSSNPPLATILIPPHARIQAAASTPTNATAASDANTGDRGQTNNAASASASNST

| SMILES | IC50 (pTau) | IC50 (GSK3β) | IC50 (GSK3α) |
| --- | --- | --- | --- |
| CC1CN(c2ccncc2NC(=O)c2ccnn3cc(-c4ccccc4)nc23)CCO1 (racemic) [Example 14, N-(4-(2-Methylmorpholino)pyridin-3-yl)-2-phenylimidazo[1,2-b]pyridazine-8-carboxamide] | 58 nM | 0.75 nM | 0.4 nM |
| CC1CN(c2ccncc2NC(=O)c2ccnn3cc(-c4ccccc4)nc23)CCO1 (single isomer, unassigned) [Example 15, N-(4-(2-Methylmorpholino)pyridin-3-yl)-2-phenylimidazo[1,2-b]pyridazine-8-carboxamide] | 9.2 nM | 0.2 nM | 0.09 nM |
| CC1CN(c2ccncc2NC(=O)c2ccnn3cc(-c4ccccc4)nc23)CCO1 (single isomer, unassigned) [Example 16, N-(4-(2-Methylmorpholino)pyridin-3-yl)-2-phenylimidazo[1,2-b]pyridazine-8-carboxamide] | 86 nM | 0.8 nM | 0.3 nM |
| O=C(Nc1cccnc1)c1ccnn2cc(-c3ccccc3)nc12 [Example 1, 2-Phenyl-N-(pyridin-3-yl)imidazo[1,2-b]pyridazine-8-carboxamide] | 660 nM | – | – |
| Cc1ccncc1NC(=O)c1ccnn2cc(-c3ccccc3)nc12 [Example 2, N-(4-Methylpyridin-3-yl)-2-phenylimidazo[1,2-b]pyridazine-8-carboxamide] | 250 nM | 3.5 nM | 0.8 nM |
| CC(C)Oc1ccncc1NC(=O)c1ccnn2cc(-c3ccccc3)nc12 [Example 3, N-(4-Isopropoxypyridin-3-yl)-2-phenylimidazo[1,2-b]pyridazine-8-carboxamide] | 83 nM | 0.7 nM | 0.4 nM |
| O=C(Nc1cnccc1OCC(F)(F)F)c1ccnn2cc(-c3ccccc3)nc12 [Example 4, 2-Phenyl-N-(4-(2,2,2-trifluoroethoxy)pyridin-3-yl)imidazo[1,2-b]pyridazine-8-carboxamide] | 22 nM | 0.3 nM | 0.1 nM |
| CS(=O)(=O)c1ccncc1NC(=O)c1ccnn2cc(-c3ccccc3)nc12 [Example 5, N-(4-(Methylsulfonyl)pyridin-3-yl)-2-phenylimidazo[1,2-b]pyridazine-8-carboxamide] | 120 nM | 1.5 nM | 0.4 nM |
| O=C(Nc1cnccc1-c1ccccc1)c1ccnn2cc(-c3ccccc3)nc12 [Example 6, 2-Phenyl-N-(4-phenylpyridin-3-yl)imidazo[1,2-b]pyridazine-8-carboxamide] | 900 nM | 3.6 nM | 1.1 nM |
| O=C(Nc1cnccc1-c1ccc(F)cc1)c1ccnn2cc(-c3ccccc3)nc12 [Example 7, N-(4-(4-Fluorophenyl)pyridin-3-yl)-2-phenylimidazo[1,2-b]pyridazine-8-carboxamide] | – | 1.6 nM | 0.6 nM |
| N#Cc1ccc(-c2ccncc2NC(=O)c2ccnn3cc(-c4ccccc4)nc23)cc1 [Example 8, N-(4-(4-Cyanophenyl)pyridin-3-yl)-2-phenylimidazo[1,2-b]pyridazine-8-carboxamide] | 160 nM | 1.1 nM | 0.3 nM |
| O=C(Nc1cnccc1N1CCCCC1)c1ccnn2cc(-c3ccccc3)nc12 [Example 9, 2-Phenyl-N-(4-(piperidin-1-yl)pyridin-3-yl)imidazo[1,2-b]pyridazine-8-carboxamide] | – | 1.1 nM | 0.2 nM |
| N#CC1CCN(c2ccncc2NC(=O)c2ccnn3cc(-c4ccccc4)nc23)CC1 [Example 10, N-(4-(4-Cyanopiperidin-1-yl)pyridin-3-yl)-2-phenylimidazo[1,2-b]pyridazine-8-carboxamide] | – | 0.2 nM | 0.1 nM |
| O=C(Nc1cnccc1N1CCC(F)CC1)c1ccnn2cc(-c3ccccc3)nc12 [Example 11, N-(4-(4-Fluoropiperidin-1-yl)pyridin-3-yl)-2-phenylimidazo[1,2-b]pyridazine-8-carboxamide] | 24 nM | 0.3 nM | 0.2 nM |
| O=C(Nc1cnccc1N1CCC(F)(F)CC1)c1ccnn2cc(-c3ccccc3)nc12 [Example 12, N-(4-(4,4-Difluoropiperidin-1-yl)pyridin-3-yl)-2-phenylimidazo[1,2-b]pyridazine-8-carboxamide] | 30 nM | 0.4 nM | 0.2 nM |
| O=C(Nc1cnccc1N1CCOCC1)c1ccnn2cc(-c3ccccc3)nc12 [Example 13, N-(4-Morpholinopyridin-3-yl)-2-phenylimidazo[1,2-b]pyridazine-8-carboxamide] | 36 nM | 0.4 nM | 0.2 nM |
| C[C@@H]1COCCN1c1ccncc1NC(=O)c1ccnn2cc(-c3ccccc3)nc12 [Example 17, (R)—N-(4-(3-Methylmorpholino)pyridin-3-yl)-2-phenylimidazo[1,2-b]pyridazine-8-carboxamide] | 180 nM | 3.4 nM | 1 nM |
| C[C@H]1COCCN1c1ccncc1NC(=O)c1ccnn2cc(-c3ccccc3)nc12 [Example 18, (S)—N-(4-(3-Methylmorpholino)pyridin-3-yl)-2-phenylimidazo[1,2-b]pyridazine-8-carboxamide] | 5.7 nM | 0.3 nM | 0.3 nM |
| COc1cncc(NC(=O)c2ccnn3cc(-c4ccccc4)nc23)c1 [Example 19, N-(5-Methoxypyridin-3-yl)-2-phenylimidazo[1,2-b]pyridazine-8-carboxamide] | 3200 nM | 37 nM | – |
| O=C(Nc1cnc(F)cc1N1CCC(F)(F)CC1)c1ccnn2cc(-c3ccccc3)nc12 [Example 20, N-(4-(4,4-Difluoropiperidin-1-yl)-6-fluoropyridin-3-yl)-2-phenylimidazo[1,2-b]pyridazine-8-carboxamide] | 160 nM | 2.3 nM | 0.6 nM |
| CC1CN(c2cc(F)ncc2NC(=O)c2ccnn3cc(-c4ccccc4)nc23)CCO1 (centres unmarked) [Example 21, N-(6-fluoro-4-(2-methylmorpholino)pyridin-3-yl)-2-phenylimidazo[1,2-b]pyridazine-8-carboxamide] | 140 nM | 0.6 nM | 0.2 nM |
| O=C(Nc1cnc(Cl)cc1N1CCC(F)(F)CC1)c1ccnn2cc(-c3ccccc3)nc12 [Example 22, N-(6-Chloro-4-(4,4-difluoropiperidin-1-yl)pyridin-3-yl)-2-phenylimidazo[1,2-b]pyridazine-8-carboxamide] | 2000 nM | 14 nM | 2.9 nM |
| COc1ccccc1-c1cn2nccc(C(=O)Nc3cnccc3N3CCC(F)(F)CC3)c2n1 [Example 23, N-(4-(4,4-Difluoropiperidin-1-yl)pyridin-3-yl)-2-(2-methoxyphenyl)imidazo[1,2-b]pyridazine-8-carboxamide] | 110 nM | 0.8 nM | 0.6 nM |
| COc1ccccc1-c1cn2nccc(C(=O)Nc3cnccc3N3CCOC(C)C3)c2n1 (centres unmarked) [Example 24, 2-(2-Methoxyphenyl)-N-(4-(2-methylmorpholino)pyridin-3-yl)imidazo[1,2-b]pyridazine-8-carboxamide] | 79 nM | 0.6 nM | 0.4 nM |
| O=C(Nc1cnccc1N1CCOCC1)c1ccnn2cc(-c3cccnc3)nc12 [Example 36, N-(4-Morpholinopyridin-3-yl)-2-(pyridin-3-yl)imidazo[1,2-b]pyridazine-8-carboxamide] | – | 1.3 nM | 0.4 nM |
